{"source": "paper PMC4063695", "about": "“Design of Embedded-Hybrid Antimicrobial Peptides with Enhanced Cell Selectivity and Anti-Biofilm Activity” (PLoS ONE, 2014)", "key": {"[1]": {"system": "B. subtilis CMCC63501", "details": "B. subtilis CMCC63501; MHB, 37°C, 18-24 h; at least three times in duplicate", "description": "(§1) E. coli ATCC25922, P. aeruginosa ATCC27853, S. aureus ATCC29213, S. epidermidis ATCC12228, S. faecalis ATCC29212 and B. subtilis CMCC63501 were obtained from the College of Veterinary Medicine, Northeast Agricultural University (Harbin, China), E. coli K88, E. coli CVCC1515 and P. aeruginosa ATCC15442 were bestowed by Prof. J.H. Wang (Gene Engineering Laboratory, Feed Research Institute, Chinese Academy of Agricultural Sciences Beijing, China) and E. coli UB1005 was kindly provided by Prof. Q.S. Qi (State Key Laboratory of Microbial Technology, Shandong University, China). […] Briefly, 50 µl of approximate 0.5–1 × 10^6 colony forming units (CFU)/ml of cells were diluted in Mueller-Hinton broth and distributed to 96-well plate, 50 µl of twofold peptides were added and the plates was incubated at 37°C for 18–24 h. The MIC values were calculated as the lowest peptide concentration that prevented visible turbidity and negative control of the pure broth without microbes. The tests were performed at least three times in duplicate."}, "[2]": {"system": "E. coli ATCC25922", "details": "E. coli ATCC25922; MHB, 37°C, 18-24 h; at least three times in duplicate", "description": "as §1"}, "[3]": {"system": "E. coli CVCC1515", "details": "E. coli CVCC1515; MHB, 37°C, 18-24 h; at least three times in duplicate", "description": "as §1"}, "[4]": {"system": "E. coli K88", "details": "MHB, 37°C, 18-24 h, at least three times in duplicate", "description": "as §1"}, "[5]": {"system": "E. coli UB1005", "details": "E. coli UB1005; MHB, 37°C, 18-24 h; at least three times in duplicate", "description": "as §1"}, "[6]": {"system": "P. aeruginosa ATCC15442", "details": "P. aeruginosa ATCC15442; MHB, 37°C, 18-24 h; at least three times in duplicate", "description": "as §1"}, "[7]": {"system": "P. aeruginosa ATCC27853", "details": "P. aeruginosa ATCC27853; MHB, 37°C, 18-24 h; at least three times in duplicate", "description": "as §1"}, "[8]": {"system": "P. aeruginosa variant 1", "details": "P. aeruginosa variant 1, obtained by step-wise culture with ciprofloxacin hydrochloride; MHB, 37°C, 18-24 h", "description": "as §1"}, "[9]": {"system": "P. aeruginosa variant 2", "details": "P. aeruginosa variant 2, obtained by step-wise culture with gentamicin; MHB, 37°C, 18-24 h", "description": "as §1"}, "[10]": {"system": "S. pullorum C79-13", "details": "S. pullorum C79-13; MHB, 37°C, 18-24 h; at least three times in duplicate", "description": "as §1"}, "[11]": {"system": "S. typhimurium ATCC14028", "details": "S. typhimurium ATCC14028; MHB, 37°C, 18-24 h; at least three times in duplicate", "description": "as §1"}, "[12]": {"system": "S.aureus ATCC29213", "details": "S.aureus ATCC29213; MHB, 37°C, 18-24 h; at least three times in duplicate", "description": "as §1"}, "[13]": {"system": "S.epidermidis ATCC12228", "details": "S.epidermidis ATCC12228; MHB, 37°C, 18-24 h; at least three times in duplicate", "description": "as §1"}, "[14]": {"system": "S.faecalis ATCC29212", "details": "S.faecalis ATCC29212; MHB, 37°C, 18-24 h; at least three times in duplicate", "description": "as §1"}, "[15]": {"system": "human red blood cells (hRBC)", "assay": "Hemolytic activity", "assay_type": "cell-based", "details": "minimum concentration that caused 5% hemolysis of hRBC (footnote); 1% hRBC in PBS pH 7.4, 1 h, 37°C, OD 492 nm", "description": "The amount of released hemoglobin by the lysis of erythrocytes was measured for hemolytic activity of peptides. Human erythrocytes were obtained from a healthy donor with written informed consent. The experimental protocol was reviewed and approved by the ethics committee of the Northeast Agricultural University Hospital. The measurement was based on a previously described method. The fresh hRBCs were washed three times by centrifugation (1000 g, 5 min, 4°C) in PBS (pH 7.4), and then resuspended in PBS to obtain the erythrocyte with a dilution of approximately 1% (v/v). Then, 50 µL of hRBCs solution was incubated with 50 µL of different concentrations of the peptides dissolved in PBS for 1 h at 37°C, before centrifugation (1000 g, 5 min, 4°C) again. The absorbance of the supernatants was measured at optical density (OD) 492 nm. […] The control samples for 0% and 100% hemolysis consisted of hRBCs in PBS (Ablank) only and in 0.1% Triton X-100 (Atriton), respectively. The percentage of hemolysis was calculated according to the following equation: [drawing 3]"}, "[16]": {"system": "Gram-negative and Gram-positive strains", "assay": "MIC over all tested strains (range, geometric mean)", "assay_type": "cell-based", "design": "GM (geometric mean of MIC values from all microbial strains): unit not given here", "description": "as §1"}}, "note": "No end group written: not given here.", "data": [{"substance": "RFRRLRKKTRKRLKKI-NH2 [RI16]", "values": [{"measurement": "MIC", "setting": "[1]", "value": 64, "unit": "µM"}, {"measurement": "MIC", "setting": "[2]", "value": 128, "unit": "µM"}, {"measurement": "MIC", "setting": "[3]", "value": 128, "unit": "µM"}, {"measurement": "MIC", "setting": "[4]", "value": ">256", "unit": "µM"}, {"measurement": "MIC", "setting": "[5]", "value": 128, "unit": "µM"}, {"measurement": "MIC", "setting": "[6]", "value": ">256", "unit": "µM"}, {"measurement": "MIC", "setting": "[7]", "value": 128, "unit": "µM"}, {"measurement": "MIC", "setting": "[8]", "value": ">256", "unit": "µM"}, {"measurement": "MIC", "setting": "[9]", "value": ">256", "unit": "µM"}, {"measurement": "MIC", "setting": "[10]", "value": 64, "unit": "µM"}, {"measurement": "MIC", "setting": "[11]", "value": 64, "unit": "µM"}, {"measurement": "MIC", "setting": "[12]", "value": 128, "unit": "µM"}, {"measurement": "MIC", "setting": "[13]", "value": 32, "unit": "µM"}, {"measurement": "MIC", "setting": "[14]", "value": 128, "unit": "µM"}, {"measurement": "MHC", "setting": "[15]", "value": ">256", "unit": "µM"}]}, {"substance": "RKKTRKR-NH2 [RR7]", "values": [{"measurement": "MIC", "setting": "[1]", "value": ">256", "unit": "µM"}, {"measurement": "MIC", "setting": "[2]", "value": ">256", "unit": "µM"}, {"measurement": "MIC", "setting": "[3]", "value": ">256", "unit": "µM"}, {"measurement": "MIC", "setting": "[4]", "value": ">256", "unit": "µM"}, {"measurement": "MIC", "setting": "[5]", "value": ">256", "unit": "µM"}, {"measurement": "MIC", "setting": "[6]", "value": ">256", "unit": "µM"}, {"measurement": "MIC", "setting": "[7]", "value": ">256", "unit": "µM"}, {"measurement": "MIC", "setting": "[8]", "value": ">256", "unit": "µM"}, {"measurement": "MIC", "setting": "[9]", "value": ">256", "unit": "µM"}, {"measurement": "MIC", "setting": "[10]", "value": ">256", "unit": "µM"}, {"measurement": "MIC", "setting": "[11]", "value": ">256", "unit": "µM"}, {"measurement": "MIC", "setting": "[12]", "value": ">256", "unit": "µM"}, {"measurement": "MIC", "setting": "[13]", "value": ">256", "unit": "µM"}, {"measurement": "MIC", "setting": "[14]", "value": ">256", "unit": "µM"}, {"measurement": "antimicrobial activity (in words)", "setting": "[16]; Gram-negative and Gram-positive strains", "value": "poor antimicrobial activity"}, {"measurement": "GM (geometric mean of MIC values from all microbial strains)", "setting": "[16]; all strains of Table 2", "value": 256}, {"measurement": "MHC", "setting": "[15]", "value": ">256", "unit": "µM"}]}]}
